In patent US20240325565A1, “COMBINATION TREATMENT FOR SOLID TUMORS INCLUDING A STING AGONIST AND A CCR2 ANTAGONIST” (University of Pittsburgh - Of the Commonwealth System of …, priority 2023, published 2024):

How the values were obtained:
cGAS in Panc02 cells = experiment: Picogreen staining and immunofluorescence for cGAS-bound micronuclei; format: cell-based, Murine; conditions: compared with control and PVD-treated groups
Method: (§1) Immunofluorescence Microscopy. Panc02 cells were seeded on chamber slides and treated with saline, free GEM, PGEM micelles, and PVD micelles, respectively. For all immunofluorescence staining, cells were washed in PBS, fixed in 4% formaldehyde/PBS for ten minutes at room temperature (RT) and permeabilized in 0.25% Triton/PBS for 20 minutes at RT. Blocking was performed in 5% BSA/0.1% Triton/PBS for 30 minutes, followed by incubation with primary antibodies in blocking buffer for one hour at 37° C. incubator. Cells were washed in PBS and incubated with secondary antibodies in blocking buffer for one hour at RT, followed by washing and mounting on coverslips using ProLong Gold antifade reagent with DAPI. Cells were imaged using confocal microscope at the specified magnification. For picogreen-cGAS staining, cells were incubated with pico488 DNA quantification reagent for 2 hours at 37° C. For γH2AX staining, permeabilized cells were blocked in Serum-free DAKO Protein Block for one hour at RT. Cells were incubated in primary antibody (γH2AX, 1:500; anti-HA, 1:100) in DAKO antibody (available from Agilent of Santa Clara, CA) diluent at 4° C. overnight on a rocker platform.

[1] = system: STING pathway in Panc02 cells; experiment: Western blotting of STING pathway-related proteins; format: cell-based, Murine
Method: Western blotting. Western blotting was performed to evaluate the STING activation in cultured Panc02 cells. Cells grown in six-well plates with 80% confluency were treated with saline, free GEM, PGEM micelles, and PVD micelles, respectively, for 48 h. Then, the cultured Panc02 cells were washed twice with pre-cooled PBS and lysed in Pierce™ RIPA buffer (available from Thermo Fischer Scientific of Pittsburgh, PA) for 30 min in 4° C. Protein concentrations were determined by BCA method, and equal amounts of total protein lysate were resolved on a 10% SDS-PAGE and subsequently transferred to a nitrocellulose membrane. Membranes were blocked with 5% non-fat milk in PBS for 1 h prior to incubation with various antibodies targeting IRF3, P-IRF3, STING, P-STING, and Cyclin B dissolved in PBST (DPBS with 0.1% Tween 20) overnight at 4° C. The blots were washed with PBST and then probed with goat antirabbit IgG for 1 h at room temperature followed by chemiluminescence detection by SuperSignal™ West Fento Maximum Sensitivity Substrate (available from Thermo Fischer Scientific). Q-Actin or GAPDH was used as a loading control.

Panc02 tumor tissues = experiment: Bulk RNA-Seq of Panc02 tumor tissues; format: in vivo, mice
Method: Bulk RNA-Seq Analysis. The Panc02 tumor-bearing mice were intravenously injected with saline, GEM and PGEM once every three days for 3 times, respectively. One day after last injection, the tumors were harvested for RNA sequencing (RNA-seq), which was performed by the Health Sciences Sequencing Core at Children's Hospital at University of Pittsburgh. RNA-Seq libraries were sequenced as 75-bp paired-end reads at a depth of ˜73-77 million reads per sample. Reads were mapped to the mouse genome (GRCm38) using STAR Aligner 2.6.1a. Gene expression quantification and differential expression analysis was performed on Saline, GEM, and PGEM treated tumor samples using RSEM 1.3.1 and Cuffdiff of Cufflinks 2.2.1. Volcano plots were generated to show the overall differential expression between pairwise comparisons among these three groups, where the x-axis indicates the log-transformed fold changes (log 2FC) and the y-axis indicates the corresponding negative log-transformed p-values (−log10(p-value)). The Gene Set Enrichment Analysis (GSEA), via GSEA software available from Broad Institute, Inc. of Cambridge, MA, was further performed based on the gene lists ranked by the log 2FC among three groups.

Panc02 cells [2] = experiment: qRT-PCR in cultured Panc02 cells; format: cell-based, Murine
Method: qRT-PCR. Panc02 cells grown in six-well plates were treated with saline, free GEM, PGEM micelles, and PVD micelles, respectively, for 48 h. Then, RNA was isolated using the PureLinkTM RNA kit (InvitrogenTM available from Thermo Fisher Scientific) and reverse transcribed using the High-Capacity cDNA Reverse Tran--scription Kit (available from Applied Biosystems/Thermo Fisher Scientific) based on the manufacturer's guidelines. qPCR was performed using Power SYBR Green PCR MasterMix (Applied Biosystems) in a QuantStudio 3 Real-Time PCR System (Applied Biosystems). In a separate study, Panc02 cells grown in six-well plates were treated with PGEM for 72 h. One day after adding PGEM into the wells, control siRNA (siNC) or STING siRNA ([…]) was added into the wells without changing the medium, and incubated for 48 h. Then the RNA was extracted, and CCL2, CCL7 and ISG15 expression levels were detected as described above. In another study, whether CCL2, CCL7 and ISG15 were induced by type I IFNs was evaluated. Panc02 cells grown in six-well plates were treated with PGEM for 72 h. One day after adding PGEM into the wells, isotype control (10 μg/mL) or IFNAR1 antibody (10 μg/mL) was added into the wells without changing the medium, and incubated for 48 h. Then, the RNA was extracted subjected to qRT-PCR analysis of the mRNA expression levels of CCL2, CCL7 and ISG15.

Panc02 tumors [3] = experiment: In vivo anti-tumor study in Panc02 tumor-bearing mice; conditions: i.v. three times at an interval of three days; for inhibition of Panc02 tumor growth (therapeutic efficacy): GEM: 20 mg/kg, PF: 10 mg/kg; for anti-tumor activity of PGEM loaded with CCR2 inhibitor: 10 mg/kg for CCR2 inhibitor
Method: In vivo anti-tumor study. The antitumor effect was evaluated in syngeneic mice bearing Panc02 tumors. In brief, 1×10^5 Panc02 cells were inoculated into the right flank of female C57BL/6 mice. When the tumor volume reached ˜50 mm^3, the mice started to receive different treatments. […]. In a separate study, the synergistic tumor inhibition effect of PF and GEM was evaluated by intravenously injecting saline, free GEM, free PF, free GEM+PF, PGEM, and PGEM/PF (GEM: 20 mg/kg; PF: 10 mg/kg), respectively, into the Panc02 tumor-bearing mice. These treatments were also performed three times at an interval of three days. The tumor volumes and body weights were continuously monitored. At the endpoint, the tumor tissues and major organs were fixed in 10% formalin and dehydrated. Then they were embedded in paraffin and sectioned, followed by H&E staining with for histopathological examination. The biochemical parameters, including WBCs, RBCs, Hb, AST, ALT, and creatinine, were evaluated for safety profiles. The effect of PGEM/PF on the inhibition of lung metastasis of pancreatic cancer was also evaluated. A pulmonary metastasis model of pancreatic cancer was established by injecting KPC cells via tail vein. On day 10 following tumor cell inoculation, mice were i.v. administered with saline, free GEM+PF, PGEM, and PGEM/PF, respectively. The treatment was performed at day 10, day 14, and Day 18, and the mice were sacrificed at day 20.

Panc02 cells [4] = experiment: γH2AX foci immunofluorescence (DNA double strand break marker); format: cell-based, Murine
Method: as §1

Panc02 cells [5] = experiment: MTT cytotoxicity assay; format: cell-based, Murine; conditions: 96 h
Method: MTT assay. Panc02 cells were seeded in 96-well plates at a density of 1500 cells/well with 100 μL of complete culture medium (DMEM with 10% FBS and 1% streptomycin/penicillin). After overnight incubation, Panc02 cells were treated with various concentrations of saline, free PF, free BMS, free Bind, free GEM, free GEM+PF, PGEM, PGEM/PF, PGEM/BMS, and PGEM/Bind micelles. After 96 h, the cytotoxicity was determined by MTT assay. The absorbance of each well was measured at 590 nm and the cell viability was determined via the following formula: (ODtreated−ODblank)/(ODcontrol−ODblank)×100%.

[6] = cited from earlier work
Panc02 tumors [7] = experiment: Quantification of tumor-infiltrating immune cells by flow cytometry; format: in vivo, mice; conditions: i.v. every three days for three times
Method: Quantification of tumor-infiltrating lymphocytes by flow cytometry. Syngeneic C57BL/6 mice bearing Panc02 tumors received various treatments (saline, free GEM, free PF, free GEM+PF, PGEM, and PGEM/PF) via i.v. administration every three days for three times. Tumors were collected at 24 h following the last treatment. Single cell suspensions were prepared according to previous literature. See Wan, Z., et al., Science Advances, 7 (50), eabj4226 (2021). Then the cells were stained with various antibodies (Table 1) for flow cytometry analysis. For intracellular cytokine (IFN-γ and GZB) staining, cells were stimulated with PMA (100 ng/mL) and lonomycin (500 ng/mL) for 5 h in the presence of Monensin. Cells were fixed/permeabilized using the BD Cytofix/Cytoperm kit prior to cell staining. Then, the fixed/permeabilized cells were suspended in residual Intracellular Staining Perm Wash Buffer and a predetermined optimum concentration of fluorophore-conjugated antibody of interest was added (e.g. PE anti-IFN-γ) for 30 minutes. The data were analyzed using FlowJo software (available from Becton Dickenson & Company pf Ashland, OR). The percentage of cytokine (IFN-γ or GZB)-producing NK and CD8^+ T cells was gated under total NK and CD8^+ T cells, respectively, which represents the percentage of total NK or CD8^+ T that are IFN-γ or GZB positive.

[8] = Release of PF from PGEM/PF micelles (dialysis method); format: physicochemical; conditions: 37° C., PBS with 0.5% tween 80, 24 h
Method: Release of PF from PGEM/PF micelles. The release of PF from PGEM/PF micelles was examined at 37° C. via a dialysis method with free PF as a control. PF-loaded PGEM micelles was transferred into a dialysis bag with MWCO of 3500 Da, which was then incubated in 50 mL PBS with 0.5% (w/v) tween 80 under gentle shaking. At specific time intervals, all the PBS solution outside the dialysis bag was withdrawn and replaced with another 50 mL of fresh solution. The PF concentrations in the solution were determined by HPLC.

[9] = Cuffdiff P<0.05, i.v. once every three days for 3 times

| PF diffused out of dialysis bag within 24 h [8] | SMILES | signals of cGAS-bound micronuclei (cGAS in Panc02 cells) | IRF3 and STING phosphorylation ([1]; 48 h) | normalized protein levels of pIRF3 and pSTING ([1]; compared with saline and PVD polymer-treated groups) | genes significantly downregulated (Panc02 tumor tissues; [9]) | genes significantly upregulated (Panc02 tumor tissues; [9]) | CCL2 and CCL7 gene expression (RNAseq) (Panc02 tumor tissues; mouse, in vivo) | ISG15 expression (RNAseq) (Panc02 tumor tissues; mouse, in vivo) | CCL2, CCL7 and ISG15 expression (Panc02 cells [2]) | inhibition of Panc02 tumor growth (therapeutic efficacy) (Panc02 tumors [3]) | formation of γH2AX foci (Panc02 cells [4]) | cytotoxicity (Panc02 cells [5]) | bioavailability [6] | solubility [6] | percentage of MDSCs and TAMs in tumors (Panc02 tumors [7]) | anti-tumor activity of PGEM loaded with CCR2 inhibitor (Panc02 tumors [3]) | anti-tumor activity of PGEM loaded with CCR2 inhibitor (Panc02 tumors [3]; listed as PF) |
| --- | --- | --- | --- | --- | --- | --- | --- | --- | --- | --- | --- | --- | --- | --- | --- | --- | --- |
| – | Nc1ccn([C@@H]2O[C@H](CO)[C@@H](O)C2(F)F)c(=O)n1 [GEM, Gemcitabine] | significantly increased | significantly induced | significantly higher | 489 genes | 416 genes | upregulation | upregulated | similarly induced | modest effect | induced | – | – | – | – | – | – |
| over 95% | O=C(NCC(=O)N1CC[C@H](N[C@H]2CC[C@@](O)(c3ccc(-c4ncccn4)cn3)CC2)C1)c1cccc(C(F)(F)F)c1 [PF-04136309, N-(2-((S)-3-(((1r,4S)-4-hydroxy-4-(5-(pyrimidin-2-yl)pyridin-2-yl)cyclohexyl)amino)pyrrolidin-1-yl)-2-oxoethyl)-3-(trifluoromethyl)benzamide] | – | – | – | – | – | – | – | – | modest effect | – | slight cytotoxicity | low bioavailability | poor solubility | decrease | best combination effect | best results |
| – | CC(=O)N[C@@H]1C[C@H](NC(C)(C)C)CC[C@@H]1N1CC[C@H](Nc2ncnc3cc(C(C)(C)C)nn23)C1=O [BMS813160, N-[(1R,2S,5R)-5-[(1,1-dimethylethyl)amino]-2-[(3S)-3-[[7-(1,1-dimethylethyl)pyrazolo[1,5-a]-1,3,5-triazin-4-yl]amino]-2-oxo-1-pyrrolidinyl]cyclohexyl]-acetamide] | – | – | – | – | – | – | – | – | – | – | – | low bioavailability | poor solubility | – | – | – |
